From ChEMBL document CHEMBL5360658, “Discovery of MK-8768, a Potent and Selective mGluR2 Negative Allosteric Modulator” (ACS Med Chem Lett, 2023)
pEC50, pIC50: −log10 of the molar value. Converted amounts (≈) assume the structure as drawn.

How the values were obtained:
[1] = Solubility of the compound at pH 7; format: physicochemical; details: buffer
[2] = Apparent permeability in […] LLC-MDR1 cell; format: ADME, cell-based; details: LLC-PK1
[3] = biological target: Voltage-gated inwardly rectifying potassium channel KCNH2 (Homo sapiens, UniProt Q12809); assay: Displacement of [35S]-MK-499 from hERG expressed in HEK293 cells […]; format: toxicity, cell-based
Sequence of Voltage-gated inwardly rectifying potassium channel KCNH2 (Q12809 whole entry): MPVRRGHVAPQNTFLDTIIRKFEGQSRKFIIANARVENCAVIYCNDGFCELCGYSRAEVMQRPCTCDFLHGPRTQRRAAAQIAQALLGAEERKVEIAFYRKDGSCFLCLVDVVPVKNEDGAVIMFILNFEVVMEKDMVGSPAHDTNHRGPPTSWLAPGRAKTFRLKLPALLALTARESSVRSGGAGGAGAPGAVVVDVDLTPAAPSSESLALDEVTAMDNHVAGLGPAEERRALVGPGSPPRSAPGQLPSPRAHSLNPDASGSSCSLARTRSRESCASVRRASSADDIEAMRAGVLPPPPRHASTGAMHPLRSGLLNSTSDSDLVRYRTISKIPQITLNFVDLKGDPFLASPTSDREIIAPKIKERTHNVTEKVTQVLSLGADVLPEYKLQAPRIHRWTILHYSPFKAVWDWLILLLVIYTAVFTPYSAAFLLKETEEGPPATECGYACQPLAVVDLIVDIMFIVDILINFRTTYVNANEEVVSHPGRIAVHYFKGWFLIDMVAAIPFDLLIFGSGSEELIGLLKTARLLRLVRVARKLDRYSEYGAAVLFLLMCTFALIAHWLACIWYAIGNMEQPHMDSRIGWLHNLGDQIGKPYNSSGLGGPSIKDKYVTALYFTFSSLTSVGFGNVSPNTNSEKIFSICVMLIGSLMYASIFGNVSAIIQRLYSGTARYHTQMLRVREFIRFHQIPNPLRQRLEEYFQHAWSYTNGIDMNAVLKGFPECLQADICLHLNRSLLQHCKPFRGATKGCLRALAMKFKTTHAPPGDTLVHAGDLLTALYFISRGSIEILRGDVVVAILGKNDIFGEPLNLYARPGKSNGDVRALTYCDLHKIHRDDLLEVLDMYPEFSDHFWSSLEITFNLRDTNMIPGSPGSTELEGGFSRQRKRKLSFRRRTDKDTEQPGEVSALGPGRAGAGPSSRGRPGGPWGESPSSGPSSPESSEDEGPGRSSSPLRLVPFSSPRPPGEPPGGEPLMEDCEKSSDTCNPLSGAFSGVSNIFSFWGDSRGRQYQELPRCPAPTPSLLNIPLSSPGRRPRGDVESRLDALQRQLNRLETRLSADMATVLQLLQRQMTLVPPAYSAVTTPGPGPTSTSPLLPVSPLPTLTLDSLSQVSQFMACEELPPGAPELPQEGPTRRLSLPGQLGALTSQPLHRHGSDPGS

[4] = biological target: Metabotropic glutamate receptor 2 (Homo sapiens, UniProt Q14416); assay: Negative allosteric modulation at human mGluR2 receptor stably expressed in DHFR null CHO cells co-expressing Galpha16 assessed as effect on intracellular calcium flux measured after 5 min by Fluo-4AM dye based FLIPR analysis; format: functional, cell-based
Sequence of Metabotropic glutamate receptor 2 (Q14416 whole entry): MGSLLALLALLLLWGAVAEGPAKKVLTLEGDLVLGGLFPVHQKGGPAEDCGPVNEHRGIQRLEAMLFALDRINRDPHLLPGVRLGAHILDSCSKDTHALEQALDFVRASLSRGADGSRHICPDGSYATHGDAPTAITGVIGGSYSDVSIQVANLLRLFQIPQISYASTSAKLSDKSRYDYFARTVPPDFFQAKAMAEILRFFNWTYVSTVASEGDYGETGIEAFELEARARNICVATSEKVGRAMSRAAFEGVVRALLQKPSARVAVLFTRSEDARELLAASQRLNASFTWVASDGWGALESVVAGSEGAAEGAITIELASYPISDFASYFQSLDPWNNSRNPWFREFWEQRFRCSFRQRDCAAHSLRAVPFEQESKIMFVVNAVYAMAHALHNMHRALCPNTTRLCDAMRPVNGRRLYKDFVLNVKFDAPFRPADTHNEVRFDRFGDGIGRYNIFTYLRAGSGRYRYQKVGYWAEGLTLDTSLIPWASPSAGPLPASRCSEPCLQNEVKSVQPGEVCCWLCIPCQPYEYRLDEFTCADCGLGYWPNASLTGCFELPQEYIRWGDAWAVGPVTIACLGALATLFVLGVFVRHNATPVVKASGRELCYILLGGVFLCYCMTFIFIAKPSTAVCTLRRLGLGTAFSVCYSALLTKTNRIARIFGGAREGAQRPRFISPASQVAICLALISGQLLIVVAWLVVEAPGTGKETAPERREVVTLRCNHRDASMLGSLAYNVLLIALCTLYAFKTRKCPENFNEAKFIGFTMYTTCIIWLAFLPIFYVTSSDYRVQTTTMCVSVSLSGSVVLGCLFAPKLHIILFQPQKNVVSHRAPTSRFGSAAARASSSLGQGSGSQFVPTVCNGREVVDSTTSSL

[5] = biological target: T1, PXR (NR1I2) (Homo sapiens, UniProt O75469); assay: Agonist activity at PXR (unknown origin) assessed as maximal efficacy at 30 uM
T1 sequence (O75469 whole entry): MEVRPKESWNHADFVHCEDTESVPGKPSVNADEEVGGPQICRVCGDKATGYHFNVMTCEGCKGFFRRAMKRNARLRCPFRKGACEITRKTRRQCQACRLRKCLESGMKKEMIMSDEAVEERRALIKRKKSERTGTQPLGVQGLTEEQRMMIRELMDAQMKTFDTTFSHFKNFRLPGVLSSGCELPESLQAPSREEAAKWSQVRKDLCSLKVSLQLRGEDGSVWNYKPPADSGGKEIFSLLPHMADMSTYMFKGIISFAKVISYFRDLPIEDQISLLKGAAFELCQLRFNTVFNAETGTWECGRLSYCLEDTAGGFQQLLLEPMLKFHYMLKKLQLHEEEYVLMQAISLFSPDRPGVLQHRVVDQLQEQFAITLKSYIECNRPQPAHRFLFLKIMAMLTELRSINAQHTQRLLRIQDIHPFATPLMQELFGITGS

[6] = biological target: T2, Nuclear receptor subfamily 1 group I member 2 (Homo sapiens, UniProt O75469); assay: Agonist activity at PXR (unknown origin)
T2 sequence (O75469 whole entry): T1 sequence (O75469 whole entry)

[7] = Oral bioavailability in rat; format: ADME, organism-based; details: in vivo
[8] = biological target: P-gp (ABCB1) (Rattus norvegicus, UniProt P43245); assay: Substrate activity at rat P-gp […] in […] LLC-MDR1 cells assessed as efflux ratio of apparent permeability across basolateral to apical over apical to basolateral side; format: ADME, cell-based, LLC-MDR1 cell; details: LLC-PK1
Sequence of P-gp (ABCB1) (P43245 whole entry): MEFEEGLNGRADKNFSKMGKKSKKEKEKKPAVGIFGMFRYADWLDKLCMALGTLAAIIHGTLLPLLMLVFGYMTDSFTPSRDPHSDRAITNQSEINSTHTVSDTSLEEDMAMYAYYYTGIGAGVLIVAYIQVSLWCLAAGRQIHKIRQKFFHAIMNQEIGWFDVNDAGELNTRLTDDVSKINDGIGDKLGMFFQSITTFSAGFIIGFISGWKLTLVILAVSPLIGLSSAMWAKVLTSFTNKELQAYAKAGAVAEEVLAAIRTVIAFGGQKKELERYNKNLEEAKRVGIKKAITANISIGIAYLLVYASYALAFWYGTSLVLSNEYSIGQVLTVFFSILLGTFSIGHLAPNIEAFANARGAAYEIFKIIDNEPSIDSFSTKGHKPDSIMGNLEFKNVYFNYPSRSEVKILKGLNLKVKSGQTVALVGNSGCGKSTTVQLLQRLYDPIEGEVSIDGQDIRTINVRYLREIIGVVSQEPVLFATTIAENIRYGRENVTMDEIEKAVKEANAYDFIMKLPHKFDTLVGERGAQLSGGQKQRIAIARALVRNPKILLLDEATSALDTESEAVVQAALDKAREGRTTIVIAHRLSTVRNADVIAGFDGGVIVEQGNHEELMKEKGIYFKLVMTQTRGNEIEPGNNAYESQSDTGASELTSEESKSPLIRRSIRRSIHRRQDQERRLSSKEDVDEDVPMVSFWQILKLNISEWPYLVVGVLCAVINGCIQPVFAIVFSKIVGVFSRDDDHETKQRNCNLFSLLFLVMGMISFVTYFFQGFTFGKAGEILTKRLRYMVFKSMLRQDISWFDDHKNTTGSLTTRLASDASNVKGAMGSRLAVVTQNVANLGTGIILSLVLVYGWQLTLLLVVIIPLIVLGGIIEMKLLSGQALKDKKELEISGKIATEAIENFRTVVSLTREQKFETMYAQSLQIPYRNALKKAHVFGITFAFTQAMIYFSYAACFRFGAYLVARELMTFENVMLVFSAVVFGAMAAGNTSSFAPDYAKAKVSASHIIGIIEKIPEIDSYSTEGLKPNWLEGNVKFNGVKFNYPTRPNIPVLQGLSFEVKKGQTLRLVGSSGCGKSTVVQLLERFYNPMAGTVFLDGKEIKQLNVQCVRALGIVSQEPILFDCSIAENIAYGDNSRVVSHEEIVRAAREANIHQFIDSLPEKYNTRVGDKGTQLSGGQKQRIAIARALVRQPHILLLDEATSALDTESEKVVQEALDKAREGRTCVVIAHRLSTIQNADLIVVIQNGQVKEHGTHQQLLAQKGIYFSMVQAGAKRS

[9] = Oral bioavailability in rat at 20 mg/kg; format: ADME, organism-based; details: in vivo
[10] = biological target: Sodium channel protein type 5 subunit alpha (Homo sapiens, UniProt Q14524); assay: Inhibition of NaV 1.5 channel (unknown origin) by automated patch-clamp assay
[11] = biological target: Metabotropic glutamate receptor 3 (Homo sapiens, UniProt Q14832); assay: Negative allosteric modulation at mGluR3 receptor (unknown origin) assessed as effect on intracellular calcium flux measured after 5 min by Fluo-4AM dye based FLIPR analysis; format: functional, cell-based
Sequence of Metabotropic glutamate receptor 3 (Q14832 whole entry): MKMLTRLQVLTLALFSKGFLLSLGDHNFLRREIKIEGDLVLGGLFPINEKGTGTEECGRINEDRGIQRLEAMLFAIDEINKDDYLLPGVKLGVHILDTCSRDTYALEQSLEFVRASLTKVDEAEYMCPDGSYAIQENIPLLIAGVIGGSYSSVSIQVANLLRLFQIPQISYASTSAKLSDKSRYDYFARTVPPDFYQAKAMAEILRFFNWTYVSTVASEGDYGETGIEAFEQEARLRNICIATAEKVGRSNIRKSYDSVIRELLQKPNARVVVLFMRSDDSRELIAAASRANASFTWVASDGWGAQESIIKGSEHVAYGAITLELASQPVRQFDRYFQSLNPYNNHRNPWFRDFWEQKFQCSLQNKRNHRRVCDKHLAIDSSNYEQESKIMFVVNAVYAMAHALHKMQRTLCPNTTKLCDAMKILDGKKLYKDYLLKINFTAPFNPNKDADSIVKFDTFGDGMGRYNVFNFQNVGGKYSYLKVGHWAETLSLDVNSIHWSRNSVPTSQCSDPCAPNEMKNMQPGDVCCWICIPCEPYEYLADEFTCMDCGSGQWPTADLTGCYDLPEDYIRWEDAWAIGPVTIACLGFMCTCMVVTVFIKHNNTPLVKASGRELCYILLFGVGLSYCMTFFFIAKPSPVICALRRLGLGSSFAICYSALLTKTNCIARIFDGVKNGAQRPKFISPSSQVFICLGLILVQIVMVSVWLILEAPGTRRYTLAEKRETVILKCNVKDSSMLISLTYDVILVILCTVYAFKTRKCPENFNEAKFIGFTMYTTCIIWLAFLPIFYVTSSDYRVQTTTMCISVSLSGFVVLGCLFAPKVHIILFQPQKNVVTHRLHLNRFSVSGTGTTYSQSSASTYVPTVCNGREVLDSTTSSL

[12] = biological target: Voltage-dependent L-type calcium channel subunit alpha-1C (Homo sapiens, UniProt Q13936); assay: Inhibition of Cav1.2 (unknown origin)

| solubility ([1]; read-out: solubility) [µM] | Papp [2] [×10⁻⁶ cm/s] | Emax at 30 µM [5] [%] | pEC50 [6] | Compound | pIC50 [3] | other results |
| --- | --- | --- | --- | --- | --- | --- |
| 2 (≈ 0.867 µg/mL) | 24 | – | – | NC(=O)c1cc(-c2ccc(F)cc2)c2ccc(CN3CCOC(C(F)(F)F)C3)cc2n1 (racemic) | 5.26 | – |
| < 1 | 31 | 47 | < 4.52 | NC(=O)c1cc(-c2ccc(F)cc2)c2ccc(CCc3cncnc3)cc2n1 | < 4.22 | – |
| 103 (≈ 39.1 µg/mL) | – | 26 | < 4.52 | CC1CN(Cc2ccc3c(-c4ccc(F)cc4)cc(C(N)=O)nc3c2)CCO1 (racemic) | 5.26 | – |
| 105 (≈ 45.4 µg/mL) | 27 | – | – | NC(=O)c1cc(-c2ccc(F)cc2)c2ccc(CN3CCNC(C(F)(F)F)C3)cc2n1 (racemic) | 4.95 | – |
| 6 (≈ 2.26 µg/mL) | 24 | 50 | < 4.52 | NC(=O)c1cc(-c2ccc(F)cc2)c2ccc(CNCC(F)(F)F)cc2n1 | 4.99 | – |
| 143 (≈ 60.3 µg/mL) | 32 | – | – | CC(C)(C(=O)N1CCOCC1)c1ccc2c(-c3ccc(F)cc3)cc(C(N)=O)nc2c1 | 4.69 | – |
| 7 (≈ 2.71 µg/mL) | 31 | 1 | < 4.52 | Cc1ncc(NCc2ccc3c(-c4ccc(F)cc4)cc(C(N)=O)nc3c2)cn1 | 5.21 | – |
| < 2 | 27 | 53 | 4.78 | Cc1cnn(Cc2ccc3c(-c4ccc(F)cc4)cc(C(N)=O)nc3c2)c1 | 5.72 | – |
| 3 (≈ 1.13 µg/mL) | 30 | 49 | < 4.52 | Cc1cc(NCc2ccc3c(-c4ccc(F)cc4)cc(C(N)=O)nc3c2)no1 | 5.48 | – |
| 4 (≈ 1.44 µg/mL) | 31 | 21 | < 4.52 | Cn1cc(Cc2ccc3c(-c4ccc(F)cc4)cc(C(N)=O)nc3c2)cn1 | 5.46 | – |
| < 2 | 28 | – | – | NC(=O)c1cc(-c2ccc(F)cc2)c2ccc(C(N3CCOCC3)C(F)(F)F)cc2n1 (racemic) | 4.95 | pIC50 [4]: 7.39 |
| 127 (≈ 46.4 µg/mL) | 36 | 95 | 5.01 | NC(=O)c1cc(-c2ccc(F)cc2)c2ccc(CN3CCOC3=O)cc2n1 | 4.85 | – |
| < 1 | 25 | 97 | 5.04 | Cn1ccc(CCc2ccc3c(-c4ccc(F)cc4)cc(C(N)=O)nc3c2)n1 | 5.54 | – |
| < 2 | 38 | 110 | 5.46 | CN(C)C(=O)C(C)(C)c1ccc2c(-c3ccc(F)cc3)cc(C(N)=O)nc2c1 | 4.40 | – |

Second part, the molecule before the results:

| Compound | solubility ([1]; read-out: solubility) [µM] | Papp [2] [×10⁻⁶ cm/s] | Emax at 30 µM [5] [%] | pEC50 [6] | pIC50 [3] | other results |
| --- | --- | --- | --- | --- | --- | --- |
| Cn1cc(-c2cc(C(N)=O)nc3cc(CN4C(=O)CCC4=O)ccc23)cn1 | 162 (≈ 58.9 µg/mL) | 30 | – | – | – | – |
| Cn1cc(-c2cc(C(N)=O)nc3cc(CN4CCOC(C5CC5)C4)ccc23)cn1 (racemic) | 175 (≈ 68.5 µg/mL) | 29 | – | – | 4.29 | pIC50 [4]: 7.49 |
| Cc1ncc(-c2cc(C(N)=O)nc3cc(CN4C(=O)CCC4=O)ccc23)s1 | 64 (≈ 24.3 µg/mL) | – | 137 | 5.22 | < 4.22 | – |
| CCn1cc(-c2cc(C(N)=O)nc3cc(CN4C(=O)CCC4=O)ccc23)cn1 | 150 (≈ 56.6 µg/mL) | 24 | – | – | 4.57 | – |
| CC1CCN(c2cc(C(N)=O)nc3cc(CN4C(=O)CCC4=O)ccc23)CC1 | < 2 | – | – | – | – | – |
| NC(=O)c1cc(-c2ccc(F)cc2)c2ccc(CN3C(=O)CCC3=O)cc2n1 | – | – | – | – | – | bioavailability [7]: 100%; solubility [1]: 4 µM (≈ 1.51 µg/mL) |
| Cn1cc(-c2cc(C(N)=O)nc3cc(CN4CCOC(C(F)(F)F)C4)ccc23)cn1 (racemic) | 132 (≈ 55.4 µg/mL) | 30 | – | – | 4.72 | – |
| CC1CN(Cc2ccc3c(-c4cnn(C)c4)cc(C(N)=O)nc3c2)CCO1 (racemic) | 175 (≈ 64 µg/mL) | – | 1 | < 4.52 | < 4.22 | – |
| Cn1cc(-c2cc(C(N)=O)nc3cc(CN4CCOC(C(F)F)C4)ccc23)cn1 (racemic) | 193 (≈ 77.5 µg/mL) | – | – | – | – | pIC50 [4]: 7.17 |
| Cc1cnn(-c2cc(C(N)=O)nc3cc(CN4C(=O)CCC4=O)ccc23)c1 | 99 (≈ 36 µg/mL) | – | 54 | < 4.52 | – | – |
| CC1CC=C(c2cc(C(N)=O)nc3cc(CN4C(=O)CCC4=O)ccc23)CC1 (racemic) | < 1 | 33 | 115 | 6.22 | 4.57 | – |
| Cc1ncc(CCc2ccc3c(-c4cnn(C)c4)cc(C(N)=O)nc3c2)cn1 | 141 (≈ 52.5 µg/mL) | 30 | – | – | < 4.22 | – |
| Cc1ccn(-c2cc(C(N)=O)nc3cc(CN4C(=O)CCC4=O)ccc23)n1 | 46 (≈ 16.7 µg/mL) | 30 | – | – | < 4.22 | efflux ratio [8]: 18; pIC50 [4]: < 5.30 |
| CN1CC=C(c2cc(C(N)=O)nc3cc(CN4C(=O)CCC4=O)ccc23)CC1 | 203 (≈ 76.8 µg/mL) | 38 | – | – | – | efflux ratio [8]: 19; pIC50 [4]: 5.39 |
| Cn1cc(-c2cc(C(N)=O)nc3cc(CN4CCNC(C(F)(F)F)C4)ccc23)cn1 (racemic) | 175 (≈ 73.2 µg/mL) | 29 | – | – | < 4.70 | pIC50 [4]: 6.91 |
| COC1CC=C(c2cc(C(N)=O)nc3cc(CN4C(=O)CCC4=O)ccc23)CC1 (racemic) | 125 (≈ 49.2 µg/mL) | 32 | – | – | < 4.22 | – |
| Cn1cc(Cc2ccc3c(-c4cnn(C)c4)cc(C(N)=O)nc3c2)cn1 | 105 (≈ 36.4 µg/mL) | 36 | – | – | < 4.22 | – |
| CC(C)C1CN(Cc2ccc3c(-c4cnn(C)c4)cc(C(N)=O)nc3c2)CCO1 (racemic) | 142 (≈ 55.9 µg/mL) | 34 | 51 | 4.54 | 4.64 | efflux ratio [8]: 1.3; pIC50 [4]: 7.64 |
| Cn1cc(-c2cc(C(N)=O)nc3cc(CN4CCO[C@@H](C(F)(F)F)C4)ccc23)cn1 | 142 (≈ 59.6 µg/mL) | 29 | – | – | < 4.22 | bioavailability [9]: 100%; pIC50 [10]: < 4.52; pIC50 [11]: 5.11; pIC50 [12]: 4.66 |
| CC(c1ccc2c(-c3cnn(C)c3)cc(C(N)=O)nc2c1)c1cnn(CC(F)(F)F)c1 (racemic) | 107 (≈ 45.8 µg/mL) | 29 | 75 | 4.72 | 5.00 | efflux ratio [8]: 18; pIC50 [4]: 7.96 |
| NC(=O)c1cc(N2CCOCC2)c2ccc(CN3C(=O)CCC3=O)cc2n1 | 157 (≈ 57.8 µg/mL) | 35 | – | – | 4.77 | – |
